Results taken from PubChem BioAssay (NCI).
Values joined by “and” are separate entries in the source; they are usually repeats but may differ in a detail not shown here. Equal values may be shown once.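 These data come from cells grown in 96-well plates and exposed to compound for 48 hours at five concentrations. GI50 = concentration required for 50% inhibition of growth. TGI denotes the concentration required for complete inhibition of growth.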

Legend:
Assay in all cases: NCI tumour cell line growth inhibition, 48 h
[1] = test system: DLD-1 colon
[2] = test system: DMS 114 small cell lung
[3] = test system: HOP-18 NSCLC
[4] = test system: LXFL 529 NSCLC
[5] = test system: XF 498 CNS
[6] = test system: KM20L2 colon
[7] = test system: M19-MEL melanoma
[8] = test system: MDA-N
[9] = test system: RXF-631 renal
[10] = test system: P388 leukemia

Row | SMILES | TGI [1] | TGI [2] | TGI [3] | TGI [4] [µM] | TGI [5] | TGI [6] [µM] | TGI [7] | TGI [8] [µM] | TGI [9] [µM] | also measured
1 | CCOc1ccccc1Nc1nc(C)c(C(=O)CC(=O)C(=O)Nc2ccccc2)s1 | > 100 µM | > 100 µM | > 100 µM | > 100 | > 100 µM | > 100 | > 100 µM | – | – | –
2 | CC(C)(O)C1CC(=O)C(C)(C2C(O)CC3(C)C4CC=C5C(CCC(O)C5(C)C)C4(C)C(=O)CC23C)O1 (stereo unspecified) | – | – | – | – | – | – | – | > 100 | – | –
3 | CCCCCC1C2C(=O)NC(=O)C1C(=O)NC2=O (stereo unspecified) | > 100 µM | > 100 µM | – | > 100 | > 100 µM | > 100 | > 100 µM | – | – | –
4 | Cc1cn2cc(-c3ccncc3)nc2s1 | > 100 µM | > 100 µM | > 100 µM | > 100 | > 100 µM | > 100 | > 100 µM | – | > 100 | –
5 | C[CH2][Ge]1([CH2]C)[CH2]CC2(CCN(CCCN(C)C)C2)C[CH2]1 | – | 3.88 µM | 8.25 µM | – | 1.45 µM | 11 | 2.63 µM | 1.02 | – | GI50 [2]: 2.11 µM; GI50 [3]: 3.19 µM; GI50 [5]: 1.16 µM; GI50 [6]: 2.94 µM; GI50 [7]: 1.47 µM; GI50 [8]: 0.369 µM; GI50 [10]: 1.34 µM; TGI [10]: 2.7 µM
6 | CC(=O)/C=C\C(=O)NNS(=O)(=O)c1ccc(C)cc1 | > 100 µM | – | – | > 100 | > 100 µM | > 100 | > 100 µM | – | > 100 | –
7 | COc1ccc2nccc(C3OC(=O)N4CCC(=O)CC34)c2c1 (stereo unspecified) | – | – | – | > 100 | > 100 µM | > 100 | > 100 µM | – | > 100 | –
8 | O=[N+]([O-])c1ccc(-c2ccc(C3=Nn4c(nnc4-c4ccc(Cl)cc4)SC3)o2)cc1 | > 100 µM | > 100 µM | > 100 µM | > 100 | 60.1 µM | > 100 | > 100 µM | – | > 100 | –
9 | O=C(NC(c1ccccc1)C(O)C(=O)OCc1ccc2c(c1)C(=O)c1ccccc1C2=O)c1ccccc1 (stereo unspecified) | > 100 µM | > 100 µM | 10.5 µM | > 100 | 35.9 µM | > 100 | > 100 µM | > 100 | > 100 | TGI [10]: > 100 µM
10 | Cc1ccc(S(=O)(=O)c2ccccn2)cc1 | > 100 µM | > 100 µM | > 100 µM | > 100 | > 100 µM | > 100 | > 100 µM | – | > 100 | –
11 | COc1cc(OC)c(-c2oc3ccccc3c(=O)c2O)c(OC)c1 | – | – | – | – | – | – | – | 2.93 | – | –
12 | Cc1ccc(SCN2CCCCC2)cc1 (tested in a mixture with another compound) | – | – | – | – | – | – | – | 22.7 | – | –
13 | NC(=O)NOCC1NC(=O)NC1=O (stereo unspecified) | – | – | – | – | – | – | – | > 100 | – | –
14 | O=C(Nc1cccc(Cl)c1)c1cc2cc(N=Nc3ccc(Br)cc3)ccc2oc1=O | > 100 µM | 56.6 µM | > 100 µM | 30.5 | > 100 µM | > 100 | – | – | > 100 | –
15 | COc1cccc2c1C(=N)c1c(O)c3c(c(O)c1C2=O)C[C@@](O)(C(C)=O)C[C@@H]3OC1CC(N)C(O)C(C)O1 (stereo partly specified) | 5.7 µM and 14.9 µM | 0.73 µM and 1.46 µM | 3.48 µM and 2.56 µM | 3.54 | 2.26 µM and 2.27 µM | – | 2.15 µM and 2.64 µM | 10.4 | 3.11 | GI50 [8]: 1.15 µM; GI50 [10]: 0.0425 µM
16 | O=C(CN1C(=O)c2ccccc2C1=O)NC1(C(=O)O)CCCC1 | – | – | – | – | – | – | – | > 100 | – | –
17 | CC1CCCC2(O1)OC1CC(=O)OC1C1=C2C(=O)c2ccccc2C1=O (stereo unspecified) | – | 3.35 µM | – | 2.76 | 8.42 µM | 16 | 7.36 µM | – | – | –
18 | CCCC1C2=C(C(=O)OC2=O)C2C(CC)CC3=C(C(=O)OC3=O)C12 (stereo unspecified) | – | – | – | – | – | – | – | > 100 | – | –
19 | CC(=O)NC1C(=O)CC(c2ccccc2)N(C)C1c1ccccc1 (stereo unspecified) | > 100 µM | > 100 µM | – | > 100 | – | > 100 | > 100 µM | – | > 100 | –
